Like-named read-outs stand apart in the source and are kept apart here.
Key:
[1] = system: MOLT-3 cells / γδ T cells; experiment: TNF-α production from γδ T cells stimulated by compound-pretreated MOLT-3 cells; assay type: cell-based; conditions: MOLT-3, Acute lymphoblastic leukemia, 4 hr pretreatment, 16 hr with γδ T cells, read-out: TNF-α50
Procedure: Since the above-mentioned results of Experimental Example confirm that the activity of bisphosphonic acids becomes high by POM esterification in various tumor cells, the TNF-α production induction ability of more number of tumor cells was quantitatively studied. […] Thereto was added a solution (500 μl) of compound 7 obtained by serially diluting 10 mM stock solution 10-fold from 20 μM, or a solution (500 μl) of compound 14 obtained by serially diluting 10 mM stock solution 10-fold from 200 μM, and the cells were suspended well. These conical tubes were stood at 37° C. for 4 hr, and the cells were washed 3 times with 5 ml of culture medium. To these cells was added 500 μl of medium, and the cells were suspended well. […] The cell culture medium was suspended well, and the plate was centrifuged at 1,700 rpm, 4° C. for 2 min and the culture supernatant (150 μl) was taken and placed in another round-bottomed 96 well plate. The plate was frozen at −80° C. overnight, left standing at room temperature for 1 hr, stirred well and 100 μl thereof was subjected to ELISA of TNF-α. The content of TNF-α was calculated from the analytical curve of TNF-α. These were performed in triplicate, and TNF-α50 of bisphosphonic acid POM ester derivative (compound 7) and bisphosphonic acid (compound 14) was calculated and summarized in Table 8.

[2] = system: EJ-1 cells / γδ T cells; experiment: TNF-α production from γδ T cells stimulated by compound-pretreated EJ-1 cells (indirect antitumor action, ELISA); assay type: cell-based; conditions: for EC50: EJ-1 pretreated 4 hr with compound, 16 hr with γδ T cells, TNF-α ELISA, read-out: TNF-α50
Summary of the method: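 EJ-1 cells exposed 4 h at 37 °C to 10-fold serial dilutions (POM esters from 20 µM, bisphosphonic acids from 200 µM), washed three times, then co-cultured with γδ T cells. Supernatant TNF-α measured by ELISA against a standard curve, in triplicate; TNF-α50 = […].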

[3] = system: γδ T cells in peripheral blood mononuclear cells of breast cancer patients; conditions: breast cancer patient PBMC, IL-2, 17 days of culture
Procedure: The obtained mononuclear cells were suspended in Yssel medium at 1.8×10^6 cells/ml, and seeded by 1.5 ml in each well of a 24-well plate. Compound 7 was added to each well at a concentration of 1 μM, and cultured at 37° C. under 5% CO2 atmosphere. After one day of culture, IL-2 was added at a concentration of 100 IU/ml, and the cells were cultured in the presence of 100 IU/ml IL-2 thereafter up to day 6, and cultured in the presence of 30 IU/ml IL-2 from day 7. After 14 days of culture, the cells were recovered, and cell surface molecule was analyzed by flow cytometry using labeled anti-CD3 antibody and labeled anti-Vδ2 antibody. As a control, an antibody having the same isotype as anti-CD3 antibody and anti-Vδ2 antibody but irrelevant thereto was used. The ratio (%) of γδ T cells having the Vδ2 region in CD3 cells was determined.
In the same manner as in Experimental Example 21 except that mononuclear cells obtained from the peripheral blood of breast cancer patients were used, compound 7 was added, and the cells were cultured at 37° C. under 5% CO2 atmosphere. […] After 17 days of culture, the cells were recovered, and cell surface molecule was analyzed by flow cytometry in the same manner as in Experimental Example 21. Also, the ratio (%) of γδ T cells having the Vδ2 region in CD3 cells was determined.

Row | EC50 ([1]; Homo sapiens) [nM] | EC50 ([2]; EJ1) [nM] | SMILES | EC50 [1] [nM] | ratio (%) of γδ T cells having the Vδ2 region in CD3 cells (purity) [3] | EC50 [2] [nM] | TNF-α production induction activity (in words) ([2]; EJ-1 pretreated with compound, γδ T cells)
1 | > 100000 | 68000 | O=P(O)(O)C(CNc1nccs1)P(=O)(O)O [Compound 14, 2-(thiazol-2-ylamino)ethylidene-1,1-bisphosphonic Acid, reference compound] | – | – | – | –
2 | – | – | CC(C)(C)C(=O)OCOP(=O)(OCOC(=O)C(C)(C)C)C(CNc1nccs1)P(=O)(OCOC(=O)C(C)(C)C)OCOC(=O)C(C)(C)C [Compound 7, tetrakispivaloyloxymethyl 2-(thiazol-2-ylamino) ethylidene-1,1-bisphosphonate] | 66 | not less than 96% | 60 | high activity

Reference: patent publication US10532065B2, “Bisphosphonic acid derivative and application for same” (NAGASAKI UNIVERSITY, priority 2014, dated 2020)
